From patent US4432973A, “Benzoyl- and α-hydroxybenzyl-phenyl-glycosides and application thereof in therapeutics” (Societe de Recherches Industrielles (S.O.R.I.), priority 1980, dated 1984)

Columns and labels:
[1] = Veinous thrombosis: veinous anti-thrombus activity; assay type: in vivo; details: 100 mg/kg I.P., 4 to 5 hours after administration; for inhibition in vivo at 100 mg/kg: Rattus norvegicus, ip, read-out: Diminution of veinous thrombus
Description: The technique used is similar to the one described by Peterson-Zucker in Thrombo.Diath.Haemorh. 23, 1, (1970).
An occlusive thrombus is created in the […] vena cava of a rat by the combined action of an endothelial alteration and a veinous stasis for 15 mins. and 4 to 5 hours after administration of the product to be tested (100 mg/kg I.P.).

[2] = Acute toxicity in the mouse by the I.P. route; assay type: in vivo; details: for LD50: read-out: DL-50 (lethal dose involving the death of half of the animals)
Text: The acute toxicity was studied in the mouse by the I.P. route. It is expressed in the form of DL-50 (lethal dose involving the death of half of the animals) or DL-0 (maximum non-lethal dose).

[3] = Anti-ulcer activity: ulcer caused by aspirin; assay type: in vivo, rat (male Wistar); details: 100 mg/kg I.P.; aspirin 192 mg/kg per os; standardised to control batch and cimetidine (index 1)
Description: The experiment is carried out on male Wistar rats of 180 to 200 g. The products to be tested are administered at 100 mg/kg I.P. (unless indicated to the contrary in Table IV).
At t=0, the rats are made to fast and a first administration of the product to be tested is made.
At t=18 hours, 2 ml of an ulcer-forming suspension with 192 mg of aspirin/kg are administered per os then a second administration of the product to be tested is made.
At t=22 hours, the animals are sacrificed and the ulcers are marked as follows: small point-like ulcers: mark 1 more extensive ulcers: mark 3 highly extensive or very deep ulcers: mark 9
This marking is standardised with respect to a control batch and to cimetidine (a reference product) to which index 1 has been allocated.

[4] = Anti-hypoxic activity: survival to hypoxia (nitrogen-oxygen 95:5); assay type: in vivo, mouse (Swiss male); details: I.P., 1/10th of LD-50 or 100 mg/kg when LD-0 ≥ 800 mg/kg; up to 15 minutes; mouse
Description: The experiment is carried out on batches of 20 Swiss male mice weighing from 20 to 30 g. Each product to be tested is administered to the mice by intraperitoneal route at a dose corresponding to 1/10th of the LD-50 or at a dose of 100 mg/kg when the LD-0 is higher than or equal to 800 mg/kg. The mice are placed in a nitrogen-oxygen (95:5) v/v atmosphere. The survival time of the mice is then measured up to 15 minutes maximum.
The results shown in Table VII are expressed in percentage of survival with respect to a non-treated control batch and a batch treated with an anti-hypoxic reference product [specialty known under the trade name of "Duxil" and which is constituted by a mixture of Almitrine bis-methanesulfonate and of Raubasine in the weight ratio 3:1], the anti-hypoxic reference product being administered at the dose of 18 mg/kg I.P.

SMILES	inhibition in vivo at 100 mg/kg [1] [%]	Diminution of veinous thrombus ([1]; rat)	DL-0 (maximum non-lethal dose) ([2]; I.P.) [mg/kg IP]	Ulcer index [3]	LD50 ([2]; in vivo, ip, I.P.) [mg/kg]	DL-0 (maximum non-lethal dose) ([2]; in vivo, ip) [mg/kg IP]	Survival (survival percentage to hypoxic aggression) [4]
O=[N+]([O-])c1ccc(C(O)c2ccc(O[C@@H]3OC[C@@H](O)[C@H](O)[C@H]3O)cc2)cc1 (single isomer, unassigned) [Example 98, [4-(4-nitro-α-hydroxybenzyl)-phenyl]-β-D-xylopyranoside]	≥ 50						
O=[N+]([O-])c1ccc(C(O)c2ccc(O[C@@H]3OC[C@@H](O)[C@H](O)[C@H]3O)cc2)cc1 (single isomer, unassigned) [Example 99, [4-(4-nitro-α-hydroxybenzyl)-phenyl]-β-D-xylopyranoside]		+ (inhibition of 30 to 49%)					
O=C(c1ccc(O[C@@H]2OC[C@@H](O)[C@H](O)[C@H]2O)cc1)c1cccc([N+](=O)[O-])c1 [Example 2]	30 to 49		> 800	0.84			
O=C(c1ccc(Br)cc1)c1ccc(O[C@@H]2OC[C@@H](O)[C@H](O)[C@H]2O)cc1 [Example 4]	30 to 49		> 800	1.04			
O=C(c1ccc(O[C@@H]2OC[C@@H](O)[C@H](O)[C@H]2O)cc1)c1ccccc1Cl [Example 5]	≥ 50		> 800				
O=C(c1ccc(O[C@@H]2OC[C@@H](O)[C@H](O)[C@H]2O)cc1)c1ccccc1[N+](=O)[O-] [Example 6]	30 to 49			0.45	600		
Nc1ccccc1C(=O)c1ccc(O[C@@H]2OC[C@@H](O)[C@H](O)[C@H]2O)cc1 [Example 7]	≥ 50		> 800				
COc1ccc(C(=O)c2ccc(O[C@@H]3OC[C@@H](O)[C@H](O)[C@H]3O)cc2)cc1 [Example 17]	30 to 49			0.69	1600		
O=C(c1ccccc1)c1ccc(O[C@@H]2OC[C@@H](O)[C@H](O)[C@H]2O)cc1 [Example 18]	30 to 49				> 1000		
O=C(c1ccc(O[C@@H]2O[C@H](CO)[C@@H](O)[C@H](O)[C@H]2O)cc1)c1ccc([N+](=O)[O-])cc1 [Example 19]				0.74		> 800	++ (from 50 to 79%)
Cc1cc(C(=O)c2ccc([N+](=O)[O-])cc2)cc(C)c1O[C@@H]1OC[C@@H](O)[C@H](O)[C@H]1O [Example 23]	30 to 49			0.52	750		
CC(=O)N[C@H]1[C@H](Oc2c(C)cc(C(=O)c3ccccc3C)cc2C)O[C@H](CO)[C@@H](O)[C@@H]1O [Example 26]				0.60	700		+ (from 30 to 49%)
Cc1cc(C(=O)c2ccc([N+](=O)[O-])cc2)ccc1O[C@@H]1OC[C@@H](O)[C@H](O)[C@H]1O [Example 29]	30 to 49		> 800				
CC(=O)O[C@@H]1[C@@H](OC(C)=O)[C@H](Oc2ccc(C(=O)c3ccc([N+](=O)[O-])cc3)cc2)OC[C@H]1OC(C)=O [Example 41, [4-(4-nitrobenzoyl)-phenyl]-2,3,4-tri-(O-acetyl)-β-D-xylopyranoside]				0.40		> 800	+++ (higher than or equal to 80%)
CC(=O)N[C@H]1[C@H](Oc2ccc(C(=O)c3ccc(Cl)cc3)cc2)O[C@H](CO)[C@@H](O)[C@@H]1O [Example 43]				0.52		> 800	+++ (higher than or equal to 80%)
CC(=O)N[C@H]1[C@H](Oc2ccc(C(=O)c3ccc([N+](=O)[O-])cc3)cc2)O[C@H](CO)[C@@H](O)[C@@H]1O [Example 44, [4-(4-nitrobenzoyl)-phenyl]-2-(N-acetyl)-β-D-glucosaminide]				0.385		> 800	+++ (higher than or equal to 80%)
CC(=O)O[C@@H]1[C@@H](OC(C)=O)[C@H](Oc2ccc(C(=O)c3ccc(N)cc3)cc2)OC[C@H]1OC(C)=O [Example 77]	30 to 49		> 800				
OC(c1ccccc1)c1ccc(O[C@@H]2OC[C@@H](O)[C@H](O)[C@H]2O)cc1 (some centres unmarked) [Example 92]	30 to 49				1400		
CC(=O)N[C@H]1[C@H](Oc2ccc(C(O)c3ccc(Cl)cc3)cc2)O[C@H](CO)[C@@H](O)[C@@H]1O (some centres unmarked) [Example 100]				0.35		> 800	++ (from 50 to 79%)
CC(=O)O[C@@H]1[C@@H](OC(C)=O)[C@H](Oc2ccc(C(=O)c3ccccc3C)cc2C)OC[C@H]1OC(C)=O [Example 103]				0.65		> 800	++ (from 50 to 79%)
CC(=O)N[C@H]1[C@H](Oc2ccc(C(=O)c3ccc([N+](=O)[O-])cc3)cc2)O[C@H](COC(C)=O)[C@@H](OC(C)=O)[C@@H]1OC(C)=O [Example 109]				0.65		> 800	++ (from 50 to 79%)
CC(=O)OC[C@H]1O[C@@H](Oc2ccc(C(=O)c3ccc([N+](=O)[O-])cc3)cc2)[C@H](OC(C)=O)[C@@H](OC(C)=O)[C@@H]1OC(C)=O [Example 110]				0.71		> 800	++ (from 50 to 79%)
CC(=O)N[C@H]1[C@H](Oc2ccc(C(=O)c3ccc(C)cc3)cc2)O[C@H](CO)[C@@H](O)[C@@H]1O [Example 111]				0.42	750		++ (from 50 to 79%)
CC(=O)N[C@H]1[C@H](Oc2ccc(C(=O)c3ccc(C)cc3)cc2)O[C@H](COC(C)=O)[C@@H](OC(C)=O)[C@@H]1OC(C)=O [Example 112]				0.68		> 800	++ (from 50 to 79%)
CC(=O)O[C@@H]1[C@@H](OC(C)=O)[C@H](Oc2ccc(C(=O)c3ccc(N(C)C)cc3)cc2)OC[C@H]1OC(C)=O [Example 116]				0.44		> 800	+ (from 30 to 49%)
OC(c1ccccc1)c1cccc(O[C@@H]2OC[C@@H](O)[C@H](O)[C@H]2O)c1 (some centres unmarked) [Example 117]				0.59	1000		++ (from 50 to 79%)
CC(=O)N[C@H]1[C@H](Oc2ccc(C(=O)c3ccccc3C)cc2)O[C@H](CO)[C@@H](O)[C@@H]1O [Example 121]				0.39		> 800	+ (from 30 to 49%)
CC(=O)N[C@H]1[C@H](Oc2ccc(C(=O)c3ccccc3C)cc2C)O[C@H](CO)[C@@H](O)[C@@H]1O [Example 122]				0.91		> 800	+ (from 30 to 49%)
